Measured values from ChEMBL document CHEMBL1142358, “3-amino-benzo[d]isoxazoles as novel multitargeted inhibitors of receptor tyrosine kinases” (J Med Chem, 2008).
The source made the active and inactive calls. The rule behind the calls is not given here.

How the values were obtained:
[1] = target: Mast/stem cell growth factor receptor Kit (Homo sapiens, UniProt P10721); test: Inhibition of KIT by HTRF assay
[2] = target: T1, Receptor-type tyrosine-protein kinase FLT3 (Homo sapiens, UniProt P36888)
T1 sequence (P36888 whole entry): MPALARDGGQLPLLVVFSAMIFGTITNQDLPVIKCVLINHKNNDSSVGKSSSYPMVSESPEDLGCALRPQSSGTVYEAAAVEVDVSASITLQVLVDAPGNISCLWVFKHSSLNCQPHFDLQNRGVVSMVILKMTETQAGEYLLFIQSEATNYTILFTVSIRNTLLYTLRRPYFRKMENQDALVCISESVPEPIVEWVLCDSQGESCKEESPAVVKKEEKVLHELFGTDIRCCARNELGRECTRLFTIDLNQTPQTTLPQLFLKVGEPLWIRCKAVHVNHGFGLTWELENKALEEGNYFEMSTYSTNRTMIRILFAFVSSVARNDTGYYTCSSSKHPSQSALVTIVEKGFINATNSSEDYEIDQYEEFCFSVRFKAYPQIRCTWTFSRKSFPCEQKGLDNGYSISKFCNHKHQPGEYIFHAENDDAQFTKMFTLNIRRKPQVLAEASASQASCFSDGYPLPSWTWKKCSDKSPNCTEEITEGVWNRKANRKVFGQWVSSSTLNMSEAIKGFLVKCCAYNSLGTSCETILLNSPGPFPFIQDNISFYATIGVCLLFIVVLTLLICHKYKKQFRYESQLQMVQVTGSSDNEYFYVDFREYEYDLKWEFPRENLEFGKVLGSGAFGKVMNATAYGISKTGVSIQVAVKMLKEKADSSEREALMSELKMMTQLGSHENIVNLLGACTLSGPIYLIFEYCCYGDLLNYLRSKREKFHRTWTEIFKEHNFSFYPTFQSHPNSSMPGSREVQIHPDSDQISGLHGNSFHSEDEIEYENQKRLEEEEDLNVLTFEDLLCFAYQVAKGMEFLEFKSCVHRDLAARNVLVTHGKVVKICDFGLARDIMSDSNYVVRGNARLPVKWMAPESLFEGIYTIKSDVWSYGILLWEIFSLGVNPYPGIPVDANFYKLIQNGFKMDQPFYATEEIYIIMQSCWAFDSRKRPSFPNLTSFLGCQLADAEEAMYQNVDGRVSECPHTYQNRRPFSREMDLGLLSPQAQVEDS
Description: Inhibition of FLT3 by HTRF assay

[3] = target: T2, Vascular endothelial growth factor receptor 2 (Homo sapiens, UniProt P35968); test: Inhibition of human KDR phosphorylation in mouse NIH3T3 cells by ELISA; assay type: cell-based
[4] = target: T2, Vascular endothelial growth factor receptor 2
Description: Inhibition of KDR by HTRF assay

[5] = target: Receptor-type tyrosine-protein kinase FLT3 (Homo sapiens) (UniProt P36888)
Description: Inhibition of FLT3 by HTRF assay

[6] = AUC in mouse at 10 mg/kg, po; assay type: ADME, organism-based; design: dose 10 mg/kg, route oral; details: plasma
HT-1080 = test: Inhibition of tumor growth in human HT1080 cells xenografted in SCID/Beige mouse at 30 mg/kg/day, bid relative to control; details: HT-1080, read-out: TGI
Angiopoietin-1 receptor = Angiopoietin-1 receptor (Homo sapiens, UniProt Q02763); test: Inhibition of TIE2 by HTRF assay
[7] = target: Macrophage colony-stimulating factor 1 receptor (Homo sapiens, UniProt P07333); test: Inhibition of CSF1R by HTRF assay
[8] = Volume of distribution in mouse at 3 mg/kg, iv; assay type: ADME, organism-based; design: dose 3 mg/kg, route intravenous; details: in vivo
[9] = target: Tyrosine-protein kinase Lyn (Homo sapiens, UniProt P07948); test: Inhibition of LYN by HTRF assay
[10] = Clearance in mouse at 3 mg/kg, iv; assay type: ADME, organism-based; design: dose 3 mg/kg, route intravenous; details: in vivo
[11] = Oral bioavailability in mouse at 10 mg/kg; assay type: ADME, organism-based; details: in vivo
Mus musculus [12] = test: Inhibition of estradiol-induced uterine edema in orally dosed BALB/c mouse edema model; assay type: functional; details: po
[13] = target: Proto-oncogene tyrosine-protein kinase Src (Homo sapiens, UniProt P12931); test: Inhibition of SRC by HTRF assay
[14] = target: Tyrosine-protein kinase HCK (Homo sapiens, UniProt P08631); test: Inhibition of HCK by HTRF assay
[15] = target: Vascular endothelial growth factor receptor 1 (Homo sapiens, UniProt P17948); test: Inhibition of FLT1 by HTRF assay
[16] = target: Platelet-derived growth factor receptor beta (Homo sapiens, UniProt P09619); test: Inhibition of PDGFRbeta by HTRF assay
[17] = target: Voltage-gated inwardly rectifying potassium channel KCNH2 (Homo sapiens, UniProt Q12809)
Description: Displacement of [3H]dofetilide from human ERG expressed in HEK293 cells

[18] = Half life in mouse at 3 mg/kg, iv; assay type: ADME, organism-based; design: dose 3 mg/kg, route intravenous; details: in vivo
Mus musculus [19] = test: Inhibition of estradiol-induced uterine edema in orally dosed BALB/c mouse edema model at 3 mg/kg, po; assay type: functional
[20] = Clearance in mouse at 1 mg/kg, iv; assay type: ADME, organism-based; design: dose 1 mg/kg, route intravenous; details: in vivo
[21] = Volume of distribution in mouse at 1 mg/kg, iv; assay type: ADME, organism-based; design: dose 1 mg/kg, route intravenous; details: in vivo
[22] = Half life in mouse at 1 mg/kg, iv; assay type: ADME, organism-based; design: dose 1 mg/kg, route intravenous; details: in vivo

T2 sequence (P35968 whole entry): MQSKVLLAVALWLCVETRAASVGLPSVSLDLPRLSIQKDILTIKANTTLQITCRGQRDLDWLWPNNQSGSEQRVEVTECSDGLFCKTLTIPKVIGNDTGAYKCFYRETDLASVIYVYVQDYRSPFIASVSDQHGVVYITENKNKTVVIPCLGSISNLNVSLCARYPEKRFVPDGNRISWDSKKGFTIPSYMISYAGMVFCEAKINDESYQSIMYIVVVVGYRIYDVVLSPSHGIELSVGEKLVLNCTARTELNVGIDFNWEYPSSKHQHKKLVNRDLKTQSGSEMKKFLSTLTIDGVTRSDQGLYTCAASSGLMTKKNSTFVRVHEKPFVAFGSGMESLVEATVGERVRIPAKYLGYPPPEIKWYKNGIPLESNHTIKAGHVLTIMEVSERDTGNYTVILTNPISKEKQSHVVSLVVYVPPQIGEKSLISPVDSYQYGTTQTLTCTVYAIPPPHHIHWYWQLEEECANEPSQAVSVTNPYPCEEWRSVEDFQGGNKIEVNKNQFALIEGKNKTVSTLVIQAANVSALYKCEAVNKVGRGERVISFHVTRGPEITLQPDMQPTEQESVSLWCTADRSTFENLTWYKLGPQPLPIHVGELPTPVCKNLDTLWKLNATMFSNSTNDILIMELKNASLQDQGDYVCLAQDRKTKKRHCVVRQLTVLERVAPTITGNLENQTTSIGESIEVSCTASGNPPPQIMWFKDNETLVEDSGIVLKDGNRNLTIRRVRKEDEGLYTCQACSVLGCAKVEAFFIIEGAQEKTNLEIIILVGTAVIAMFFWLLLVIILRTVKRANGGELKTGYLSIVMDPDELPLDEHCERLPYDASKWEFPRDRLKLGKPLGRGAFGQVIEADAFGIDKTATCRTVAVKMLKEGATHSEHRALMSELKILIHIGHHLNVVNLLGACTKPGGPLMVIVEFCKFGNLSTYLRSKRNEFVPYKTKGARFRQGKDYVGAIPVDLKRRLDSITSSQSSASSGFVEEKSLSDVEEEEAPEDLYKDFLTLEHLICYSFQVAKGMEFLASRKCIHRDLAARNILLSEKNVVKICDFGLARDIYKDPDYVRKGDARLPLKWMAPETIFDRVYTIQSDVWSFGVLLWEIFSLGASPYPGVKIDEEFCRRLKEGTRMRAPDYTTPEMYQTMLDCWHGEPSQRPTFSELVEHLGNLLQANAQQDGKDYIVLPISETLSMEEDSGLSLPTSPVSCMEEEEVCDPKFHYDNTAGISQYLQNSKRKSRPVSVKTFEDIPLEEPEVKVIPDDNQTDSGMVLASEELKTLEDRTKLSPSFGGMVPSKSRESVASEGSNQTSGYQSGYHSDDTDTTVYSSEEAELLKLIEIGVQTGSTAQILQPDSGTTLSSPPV
Chain of Mast/stem cell growth factor receptor Kit (P10721 whole entry): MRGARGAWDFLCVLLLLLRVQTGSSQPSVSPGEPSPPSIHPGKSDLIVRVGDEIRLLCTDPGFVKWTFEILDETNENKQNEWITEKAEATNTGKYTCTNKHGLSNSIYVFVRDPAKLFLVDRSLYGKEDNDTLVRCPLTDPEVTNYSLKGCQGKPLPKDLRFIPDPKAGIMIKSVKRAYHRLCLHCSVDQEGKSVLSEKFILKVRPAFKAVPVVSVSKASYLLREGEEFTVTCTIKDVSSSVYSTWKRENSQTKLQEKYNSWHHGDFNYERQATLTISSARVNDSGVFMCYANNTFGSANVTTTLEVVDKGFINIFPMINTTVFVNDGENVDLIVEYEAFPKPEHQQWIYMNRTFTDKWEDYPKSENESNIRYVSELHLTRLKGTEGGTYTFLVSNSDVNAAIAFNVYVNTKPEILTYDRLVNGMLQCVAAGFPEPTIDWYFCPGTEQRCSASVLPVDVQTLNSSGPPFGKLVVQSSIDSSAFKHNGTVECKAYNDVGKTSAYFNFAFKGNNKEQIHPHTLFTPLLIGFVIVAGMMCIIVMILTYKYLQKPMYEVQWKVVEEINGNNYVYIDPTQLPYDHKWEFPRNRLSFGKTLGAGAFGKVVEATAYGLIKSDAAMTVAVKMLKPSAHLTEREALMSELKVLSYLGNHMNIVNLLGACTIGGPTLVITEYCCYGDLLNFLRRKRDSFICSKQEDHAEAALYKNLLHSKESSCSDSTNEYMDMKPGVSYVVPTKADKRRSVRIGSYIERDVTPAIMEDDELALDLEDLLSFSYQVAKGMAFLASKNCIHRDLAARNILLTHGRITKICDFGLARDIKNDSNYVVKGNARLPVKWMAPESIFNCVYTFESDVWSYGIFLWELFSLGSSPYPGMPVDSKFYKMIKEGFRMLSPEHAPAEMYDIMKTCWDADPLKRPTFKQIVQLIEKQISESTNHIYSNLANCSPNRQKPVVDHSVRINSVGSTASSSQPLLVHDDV
Chain of Macrophage colony-stimulating factor 1 receptor (P07333 whole entry): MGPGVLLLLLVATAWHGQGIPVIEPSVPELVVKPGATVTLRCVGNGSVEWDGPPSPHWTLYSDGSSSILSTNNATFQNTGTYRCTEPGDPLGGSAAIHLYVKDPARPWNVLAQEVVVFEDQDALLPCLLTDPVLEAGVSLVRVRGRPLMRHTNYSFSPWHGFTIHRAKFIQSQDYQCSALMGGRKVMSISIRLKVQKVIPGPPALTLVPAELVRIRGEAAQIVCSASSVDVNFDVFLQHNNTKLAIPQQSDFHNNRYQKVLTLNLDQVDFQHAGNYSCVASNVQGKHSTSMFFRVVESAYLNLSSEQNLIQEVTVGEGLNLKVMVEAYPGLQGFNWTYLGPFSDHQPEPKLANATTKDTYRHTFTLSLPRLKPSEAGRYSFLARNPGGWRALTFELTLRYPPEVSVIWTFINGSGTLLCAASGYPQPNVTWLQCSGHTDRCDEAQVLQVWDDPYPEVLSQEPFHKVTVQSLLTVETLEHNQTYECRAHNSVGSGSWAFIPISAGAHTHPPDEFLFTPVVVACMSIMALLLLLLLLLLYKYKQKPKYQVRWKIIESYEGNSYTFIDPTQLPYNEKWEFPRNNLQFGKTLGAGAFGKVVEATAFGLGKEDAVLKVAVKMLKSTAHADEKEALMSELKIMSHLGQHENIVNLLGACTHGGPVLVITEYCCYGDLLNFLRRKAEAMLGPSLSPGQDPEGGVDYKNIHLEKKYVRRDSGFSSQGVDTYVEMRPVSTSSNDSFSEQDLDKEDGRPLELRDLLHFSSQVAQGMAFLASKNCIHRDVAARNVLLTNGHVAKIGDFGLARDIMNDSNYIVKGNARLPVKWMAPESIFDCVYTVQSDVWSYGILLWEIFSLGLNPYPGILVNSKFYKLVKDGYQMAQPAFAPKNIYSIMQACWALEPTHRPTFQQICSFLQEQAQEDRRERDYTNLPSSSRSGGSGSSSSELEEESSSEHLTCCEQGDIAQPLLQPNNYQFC
Chain of Tyrosine-protein kinase HCK (P08631 whole entry): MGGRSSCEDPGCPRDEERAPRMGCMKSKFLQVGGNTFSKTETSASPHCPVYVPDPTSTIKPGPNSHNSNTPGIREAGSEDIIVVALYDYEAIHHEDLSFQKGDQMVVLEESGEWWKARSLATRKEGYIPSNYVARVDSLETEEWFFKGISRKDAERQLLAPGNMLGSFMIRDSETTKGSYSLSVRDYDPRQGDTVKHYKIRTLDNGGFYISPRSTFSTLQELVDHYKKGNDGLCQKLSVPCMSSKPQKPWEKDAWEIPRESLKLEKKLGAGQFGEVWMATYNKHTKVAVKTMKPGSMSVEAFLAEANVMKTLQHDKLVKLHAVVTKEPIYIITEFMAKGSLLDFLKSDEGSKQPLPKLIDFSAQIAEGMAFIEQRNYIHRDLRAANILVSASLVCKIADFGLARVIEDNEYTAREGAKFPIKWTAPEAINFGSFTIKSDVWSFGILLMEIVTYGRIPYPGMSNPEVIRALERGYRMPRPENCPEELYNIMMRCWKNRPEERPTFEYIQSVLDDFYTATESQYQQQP
Chain of Platelet-derived growth factor receptor beta (P09619 whole entry): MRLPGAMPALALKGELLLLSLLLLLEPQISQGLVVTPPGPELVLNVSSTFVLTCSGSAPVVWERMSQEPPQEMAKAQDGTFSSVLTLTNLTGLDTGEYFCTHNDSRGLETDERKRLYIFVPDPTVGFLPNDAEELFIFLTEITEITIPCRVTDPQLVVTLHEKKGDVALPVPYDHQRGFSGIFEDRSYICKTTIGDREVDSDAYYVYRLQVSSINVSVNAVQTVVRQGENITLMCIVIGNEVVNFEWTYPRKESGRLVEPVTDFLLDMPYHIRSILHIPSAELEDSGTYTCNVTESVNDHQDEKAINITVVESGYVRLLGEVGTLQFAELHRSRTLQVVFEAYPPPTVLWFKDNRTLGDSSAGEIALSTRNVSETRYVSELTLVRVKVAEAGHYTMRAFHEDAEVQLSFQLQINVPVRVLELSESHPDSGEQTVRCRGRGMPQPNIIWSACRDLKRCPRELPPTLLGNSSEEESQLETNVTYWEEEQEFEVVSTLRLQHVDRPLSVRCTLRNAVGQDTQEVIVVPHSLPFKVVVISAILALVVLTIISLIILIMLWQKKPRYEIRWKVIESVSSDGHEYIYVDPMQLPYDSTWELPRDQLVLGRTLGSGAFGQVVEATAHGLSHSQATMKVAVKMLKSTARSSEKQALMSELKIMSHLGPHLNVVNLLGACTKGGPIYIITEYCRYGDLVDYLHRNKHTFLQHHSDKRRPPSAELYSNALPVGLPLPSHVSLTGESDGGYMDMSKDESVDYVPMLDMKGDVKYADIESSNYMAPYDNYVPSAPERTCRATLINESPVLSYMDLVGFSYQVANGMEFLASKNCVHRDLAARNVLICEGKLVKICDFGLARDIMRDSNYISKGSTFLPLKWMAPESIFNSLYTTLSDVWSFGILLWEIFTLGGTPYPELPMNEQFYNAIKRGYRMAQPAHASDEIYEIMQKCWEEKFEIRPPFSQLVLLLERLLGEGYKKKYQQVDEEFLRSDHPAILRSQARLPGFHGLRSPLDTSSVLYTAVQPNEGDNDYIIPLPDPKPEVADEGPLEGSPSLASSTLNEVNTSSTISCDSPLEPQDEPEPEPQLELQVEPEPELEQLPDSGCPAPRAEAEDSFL

| SMILES | IC50 [1] [nM] | IC50 [2] [nM] | further results |
| --- | --- | --- | --- |
| Nc1noc2cccc(-c3ccc(NC(=O)Nc4ccccc4F)cc3)c12 | 21 | – | – |
| COc1ccc(NC(=O)Nc2ccc(-c3cccc4onc(N)c34)cc2)cc1Cl | – | 8 | IC50 [3]: 36 nM; IC50 [4]: 8 nM |
| Cc1ccc(F)c(NC(=O)Nc2ccc(-c3ccc(CN4CCOCC4)c4onc(N)c34)cc2)c1 | 114 | 82 | IC50 [4]: 365 nM |
| Cc1ccc(NC(=O)Nc2ccc(-c3cccc4onc(N)c34)cc2)cc1F | 12 | – | Activity [5]: inactive |
| Nc1noc2cccc(-c3ccc(NC(=O)Nc4cccc(Cl)c4)cc3)c12 | 10 | 6 | – |
| Nc1noc2cccc(-c3ccc(NC(=O)Nc4cc(F)cc(F)c4)cc3)c12 | 14 | – | Activity [5]: inactive |
| Nc1noc2cccc(-c3ccc(NC(=O)/C=C/c4cccc(C(F)(F)F)c4)cc3)c12 | > 12500 | 1400 | IC50 [4]: > 12500 nM |
| Nc1noc2cccc(-c3ccc(NC(=O)Nc4ccccc4C(F)(F)F)cc3)c12 | 23400 | – | – |
| Cc1ccc(F)c(NC(=O)Nc2ccc(-c3cccc4onc(N)c34)cc2)c1 | 23 | – | – |
| NC(=O)Nc1ccc(-c2cccc3onc(N)c23)cc1 | 4440 | – | – |
| Nc1noc2cccc(-c3ccc(NC(=O)Nc4cccc(Br)c4)cc3)c12 | 7 | – | Activity [5]: inactive |
| Cc1ccc(F)c(NC(=O)Nc2ccc(-c3ccc(C)c4onc(N)c34)cc2)c1 | 64 | 61 | – |
| Cc1ccc(NC(=O)Nc2ccc(-c3cccc4onc(N)c34)cc2)cc1Cl | 50 | – | – |
| COc1ccc(-c2ccc(NC(=O)Nc3cc(C)ccc3F)cc2)c2c(N)noc12 | 43 | 36 | AUC [6]: 8.5 µM·h; inhibition in vivo at 30 mg/kg/day (HT-1080): 55%; IC50 (Angiopoietin-1 receptor): 249 nM; IC50 [7]: 27 nM; Vd [8]: 0.94 L/kg; IC50 [9]: > 50000 nM; clearance [10]: 16.7 mL/min/kg; bioavailability [11]: 34%; ED50 (Mus musculus [12]): 3.2 mg/kg; IC50 [13]: > 50000 nM; IC50 [14]: > 50000 nM; IC50 [15]: 24 nM; IC50 [16]: 96 nM; IC50 [17]: > 30000 nM; half-life [18]: 0.66 h |
| Nc1noc2cccc(-c3ccc(NC(=O)Nc4cccc([N+](=O)[O-])c4)cc3)c12 | 14 | 5 | – |
| COc1ccc(-c2ccc(NC(=O)Nc3cccc(Cl)c3)cc2)c2c(N)noc12 | 72 | 30 | AUC [6]: 25.8 µM·h; inhibition in vivo at 3 mg/kg (Mus musculus [19]): 90%; inhibition in vivo at 30 mg/kg/day (HT-1080): 45%; clearance [20]: 15.5 mL/min/kg; IC50 (Angiopoietin-1 receptor): 1000 nM; IC50 [7]: 40 nM; IC50 [9]: > 50000 nM; bioavailability [11]: 99%; Vd [21]: 1.2 L/kg; IC50 [13]: > 50000 nM; IC50 [14]: > 50000 nM; IC50 [15]: 38 nM; Activity [16]: inactive; half-life [22]: 0.9 h |
| COc1cccc(NC(=O)Nc2ccc(-c3cccc4onc(N)c34)cc2)c1 | 4 | – | Activity [5]: inactive |
| Nc1noc2cccc(-c3ccc(NC(=O)Nc4ccccc4)cc3)c12 | 18 | – | – |
| Nc1noc2cccc(-c3ccc(NC(=O)Nc4cc(C(F)(F)F)ccc4F)cc3)c12 | 339 | – | – |

| SMILES | IC50 [1] [nM] | IC50 [2] [nM] | further results |
| --- | --- | --- | --- |
| Nc1noc2cccc(-c3ccc(NC(=O)c4ccccc4)cc3)c12 | > 12500 | > 12500 | IC50 [4]: > 12500 nM |
| Cc1ccc(F)c(NC(=O)Nc2ccc(-c3ccc(OC(F)(F)F)c4onc(N)c34)cc2)c1 | 294 | 58 | – |
| Cc1ccc(F)c(NC(=O)Nc2ccc(-c3ccc(OCCN4CCOCC4)c4onc(N)c34)cc2)c1 | 71 | 34 | – |
| Nc1noc2cccc(-c3ccc(NC(=O)Nc4ccc(F)cc4)cc3)c12 | 7 | 4 | – |
| COc1ccc(NC(=O)Nc2ccc(-c3cccc4onc(N)c34)cc2)cc1 | 5 | – | Activity [5]: inactive |
| Cc1ccc(F)c(NC(=O)Nc2ccc(-c3cccc4snc(N)c34)cc2)c1 | 790 | 1500 | IC50 [4]: 628 nM |
| Nc1nsc2cccc(-c3ccc(NC(=O)Nc4cccc(C(F)(F)F)c4)cc3)c12 | 2630 | 1260 | IC50 [4]: 247 nM |
| Nc1noc2cccc(-c3ccc(NC(=O)Nc4cccc(C(F)(F)F)c4)cc3)c12 | 114 | 64 | – |
| Nc1noc2cccc(-c3ccc(NC(=O)Nc4ccc(C(F)(F)F)cc4)cc3)c12 | 27 | – | Activity [5]: inactive |
| Nc1noc2cccc(-c3ccc(NC(=O)Nc4ccc(F)c(Cl)c4)cc3)c12 | 36 | 22 | – |
| Cc1cccc(NC(=O)Nc2ccc(-c3cccc4onc(N)c34)cc2)c1 | 12 | 14 | – |
| Nc1noc2cccc(-c3ccc(NC(=O)Nc4cccc(F)c4)cc3)c12 | 11 | – | Activity [5]: inactive |
| Nc1ccc(-c2cccc3onc(N)c23)cc1 | 14800 | – | – |
| Cc1ccc(F)c(NC(=O)Nc2ccc(-c3ccc(F)c4onc(N)c34)cc2)c1 | 216 | 173 | IC50 [4]: 211 nM |
| Cc1ccc(NC(=O)Nc2ccc(-c3cccc4onc(N)c34)cc2)cc1 | 5 | – | – |
| Nc1noc2cccc(-c3ccc(NC(=O)Nc4ccc(OC(F)(F)F)cc4)cc3)c12 | 102 | 27 | – |
| COc1ccc(-c2ccc(NC(=O)Nc3cccc(Br)c3)cc2)c2c(N)noc12 | – | – | AUC [6]: 13.8 µM·h; Vd [8]: 3.1 L/kg; clearance [10]: 18.3 mL/min/kg; bioavailability [11]: 71%; ED50 (Mus musculus [12]): 1 mg/kg; half-life [18]: 1.9 h |
| Nc1noc2cccc(-c3ccc(NC(=O)Nc4ccc(F)c(C(F)(F)F)c4)cc3)c12 | 62 | 28 | AUC [6]: 33.1 µM·h; inhibition in vivo at 30 mg/kg/day (HT-1080): 63%; Vd [8]: 1.4 L/kg; clearance [10]: 13.2 mL/min/kg; bioavailability [11]: 100%; ED50 (Mus musculus [12]): 5.4 mg/kg; half-life [18]: 1.2 h |
| Nc1noc2cccc(-c3ccc(NC(=O)Nc4ccccc4OC(F)(F)F)cc3)c12 | 166 | 60 | – |
